{"source": "patent US20200289554A1", "about": "“BIOORTHOGONAL COMPOUNDS COMPRISING A PROPARGYL GROUP FOR TREATING CANCER” (THE UNIVERSITY COURT OF THE UNIVERSITY OF EDINBURGH, priority 2016, published 2020)", "key": {"[1]": {"system": "T98 cells", "assay": "Prodrug safety dose-response cell viability (PrestoBlue), T98", "type": "cell-based", "settings": "Homo sapiens, 120 h, 5 days, no catalyst", "procedure": "These cell lines were selected as these are primary malignancies against which the parental drugs are currently prescribed.\nThe toxicities of each active agent and prodrugs were compared by performing dose-response studies. […] Cell viability was analysed by fluoresce intensity (λex=540 nm; λem=590 nm) after 60-90 min incubation with PrestoBlue™ Reagent (Life Technologies)."}, "[2]": {"system": "A549 cells", "assay": "BOOM conversion: prodrug + metal resins in cell culture, cell viability, A549", "type": "cell-based, human", "procedure": "Cell viabilities for each prodrug provided as a combination with palladium is presented in FIG. 3 and gold is presented in FIG. 33 in the right of each set of two bars. […] Cells were incubated in tissue culture media containing 0.1% (v/v) DMSO and: Pd^0, Au, or Pd/Au-resins (1 mg/mL, negative control); 100 μM of each prodrug (negative control); and Pd^0, Au, or Pd/Au-resins (1 mg/mL)+100 μM of each prodrug (BOOM reaction assay). Cells incubated in 0.1% (v/v) DMSO in media were used as untreated cell control.\n(§1) Following 5 days treatment, cells were incubated with PrestoBlue™ Cell Viability Reagent (Life Technologies) for 60-90 min. Fluorescence intensity values were related to the untreated cells (100% cell viability). […] Cells incubated in 0.1% (v/v) DMSO in media were used as untreated cell control.\n(§2) Cell viabilities for each prodrug provided as a combination with palladium is presented in FIG. 7 in the right of each set of two bars. Data for prodrug in the absence of palladium catalyst is also provided (the left bar of each set of two bars) for comparison along with negative controls (from left to right: DMSO, Pd^0 and Doxorubicin). Cells were incubated in tissue culture media containing 0.1% (v/v) DMSO and: Pd^0-resins (1 mg/mL, negative control); 1 μM of each prodrug (negative control); and Pd^0-resins (1 mg/mL)+1 μM of each prodrug (BOOM reaction assay). Cells incubated in 0.1% (v/v) DMSO in media were used as untreated cell control.\nFollowing 5 days treatment, cells were incubated with PrestoBlue™ Cell Viability Reagent (Life Technologies) for 90 min. Fluorescence intensity values were related to the untreated cells (100% cell viability). Data are provided in FIG. 8 for cells incubated in tissue culture media containing 0.1% (v/v) DMSO and: Pd^0-resins (1 mg/mL, negative control); 0.3-3 μM of Doxorubicin prodrug for A549 and DU145 cell lines, 0.1-1 μM of Doxorubicin prodrug for T98 cell line (negative control); 0.3-3 μM of Doxorubicin for A549 and DU145 cell lines, 0.1-1 μM of Doxorubicin for T98 cell line (positive control); and Pd^0-resin (1 mg/mL)+Doxorubicin prodrug (BOOM reaction assay). Cells incubated in 0.1% (v/v) DMSO in media were used as untreated cell control.\nas §2, with “21” for “7”, “panobinostat).” for “Doxorubicin).”\n(§3) The toxigenic effect as a result of in situ generation of parental drug in cell culture was determined by incubating all cells in tissue culture media containing 0.1% (v/v) DMSO and a) Pd^0, Au, or Pd/Au-resin (1 mg/mL for all cells tested, negative control); b) prodrug (negative control); or c) Pd^0, Au, or Pd/Au-resin (1 mg/mL for all cells)+prodrug (reaction assay). Cells incubated in 0.1% (v/v) DMSO in media was used as an untreated cell reference standard (100% viability). A PrestoBlue® cell viability assay as described above was carried out and fluorescent intensities compared to the untreated cell control.\nA dose response study was performed for each cell line keeping the quantity of Pd^0 resin constant (0.8 mg/mL for U87G and 1 mg/mL for the rest of cell lines). All cells were plated in Dulbecco's Modified Eagle Media (DMEM) supplemented with serum (10% FBS) and L-glutamine (2 mM). […]"}, "[3]": {"system": "U87G cells", "assay": "BOOM conversion: prodrug + Pd0-resins in cell culture, cell viability, U87G", "type": "cell-based, human", "settings": "Homo sapiens, 120 h, prodrug in combination with Pd0-resins 0.8 mg/mL, 5 days, read-out: EC50, prodrug + Pd-resins", "procedure": "as §1, §3\nA dose response study was performed for each cell line keeping the quantity of Pd^0 resin constant (0.8 mg/mL for U87G and 1 mg/mL for the rest of cell lines). […] Fluorescence intensity values (detected using a PerkinElmer EnVision 2101 multilabel reader with excitation filter at 540 nm and emissions filter at 590 nm) were determined relative to the untreated cell control."}}}
{"compound": "C#CCOc1ccc(CONC(=O)CCCCCCC(=O)Nc2ccccc2)cc1", "note": "[POB-Vor, Propargyloxybenzyl-Vorinostat]", "values": [{"measurement": "EC50", "setting": "[1]", "value": "> 500", "unit": "µM"}, {"measurement": "toxigenic effect of prodrug + Au resins", "setting": "[2]; Au resins 1 mg/mL, prodrug 100 μM", "value": "strong toxigenic effect"}, {"measurement": "EC50", "setting": "[2]; Homo sapiens, 120 h, prodrug in combination with Pd0-resins 1 mg/mL, 5 days, read-out: EC50, prodrug + Pd-resins", "value": 10.5, "unit": "µM"}, {"measurement": "toxigenic effect of prodrug + Pd0 resins", "setting": "[2]; Pd0-resin 1 mg/mL, 100 μM Vorinostat prodrugs, 1 μM Doxorubicin prodrugs, 0.3 μM Panobinostat prodrug", "value": "strong toxigenic effect"}, {"measurement": "toxigenic effect of prodrug + Pd/Au resins", "setting": "[2]; Pd/Au resins 1 mg/mL, prodrug 100 μM", "value": "strong toxigenic effect"}, {"measurement": "EC50", "setting": "[3]", "value": 24.7, "unit": "µM"}]}
